According to US6914045B2, “Glycopeptide antibiotics” (Wyeth Holdings Corporation, priority 2001, dated 2005):

How the values were obtained:
Enterococcus sp. = assay: in vitro antibacterial evaluation, MIC by broth dilution; type: cell-based; conditions: broth dilution, 18 hours at 35° C.; for MIC Enterococcus faecalis (ATCC 29212): strain ATCC 29212; for MIC Enterococcus faecium (GC 2243): strain GC 2243; for MIC Enterococcus faecalis (GC 4552): strain GC 4552; for MIC Enterococcus faecalis (GC 4553): strain GC 4553; for MIC Enterococcus faecalis (GC 4554): strain GC 4554; for MIC Enterococcus faecium (GC 4556): strain GC 4556; for MIC Enterococcus faecium (GC 4557): strain GC 4557; for MIC Enterococcus avium (GC 4558): strain GC 4558; for MIC Enterococcus faecalis (GC 6189): strain GC 6189
How it was run: (§1)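 Inoculum 5×10^5 CFU/mL; concentrations 64 to 0.06 μg/mL; MIC defined as lowest inhibitory level. Conducted by broth dilution under NCCLS guidelines.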

Staphylococcus sp. = assay: as above; type: cell-based; conditions: broth dilution, 18 hours at 35° C.; for MIC Staphylococcus aureus (GC 1131): strain GC 1131
How it was run: as §1

Streptococcus sp. = assay: as above; type: cell-based; conditions: broth dilution, 18 hours at 35° C.
How it was run: as §1

Escherichia coli = assay: as above; type: cell-based
How it was run: as §1

[1] = system: Staphylococcus aureus-SMITH (GC 4543); assay: acute lethal infection in mice; type: in vivo; conditions: acute lethal infection, female CD-1 mice, intraperitoneal challenge, intravenous 30 min. after infection, 7 day survival
Description: Methods for in Vivo Antibacterial Evaluation
The therapeutic effects of glycopeptide antibiotics of Formula I are determined against acute lethal infections with S. aureus (strain Smith), a penicillin resistant strain of S. pneumoniae (strain GC 1894), and a vancomycin resistant strain of E. fecalis (strain GC 6189 and GC 2246). Female mice, CD-1 (Charles River Laboratories), 20+/−2 gm, are challenged by intraperitoneal injection of sufficient bacteria (suspended in /trypticase Soy Broth or hog gastric mucin) to kill non-treated controls within 24-48 hr. Antibacterial agents, contained in 0.2 mL of saline or 5% dextrose solution, are administered intravenously 30 min. after infection. Five mice are treated at each dose level. The 7 day survival ratios from 3 separate tests are pooled for calculation of median effective dose (ED50).

CC(c1ccccc1)C1NC(=O)CNC(=O)C(CO)NC(=O)C(C(O)C2CNC(=N)N2C2OC(CO)C(O)C(O)C2O)NC(=O)C(C(O)C2CNC(=N)N2)NC(=O)C(Cc2ccc(OC3OC(CO)C(OC4OC5COC(c6cc7c(cc6Cl)OCO7)OC5C(O)C4O)C(O)C3O)cc2)NC1=O (stereo not drawn) [Example 158, Cyclo[glycyl-β-methylphenylalanyl-O-[4-O-[4,6-O-[(6-chloro-1,3-benzodioxol-5-yl)-methylene]hexopyranosyl]hexopyranosyl]tyrosyl-3-(2-iminoimidazolidin-4-yl)seryl-3-(3-hexopyranosyl-2-iminoimidazolidin-4-yl)serylseryl]]
0.5 µg/mL: MIC Staphylococcus haemolyticus (GC 4546) (Staphylococcus sp.; strain GC 4546)
0.14 mg/kg: median effective dose (ED50), Staphylococcus aureus-SMITH (GC 4543) [1]
4 µg/mL: MIC Enterococcus faecalis (GC 2242) (Enterococcus sp.; Enterococcus faecalis (GC 2242)) | MIC Enterococcus faecalis (GC 2691) (Enterococcus sp.; Enterococcus faecalis (GC 2691)) | MIC Enterococcus faecalis (GC 3059) (Enterococcus sp.; Enterococcus faecalis (GC 3059)) | MIC Enterococcus faecalis (ATCC 29212) (Enterococcus sp.; inoculum 5×10^5 CFU/mL) | MIC Enterococcus faecium (GC 2243) (Enterococcus sp.; inoculum 5×10^5 CFU/mL) | MIC Enterococcus faecalis (GC 4553) (Enterococcus sp.; inoculum 5×10^5 CFU/mL) | MIC Enterococcus faecalis (GC 4554) (Enterococcus sp.; inoculum 5×10^5 CFU/mL) | MIC Enterococcus avium (GC 4558) (Enterococcus sp.; inoculum 5×10^5 CFU/mL) | MIC Enterococcus faecalis (GC 6189) (Enterococcus sp.; inoculum 5×10^5 CFU/mL) | MIC Enterococcus faecalis (ATCC 29212) (Enterococcus sp.) | MIC Enterococcus faecalis (GC 2242) (Enterococcus sp.; strain GC 2242) | MIC Enterococcus faecium (GC 2243) (Enterococcus sp.) | MIC Enterococcus faecalis (GC 2691) (Enterococcus sp.; strain GC 2691) | MIC Enterococcus faecalis (GC 3059) (Enterococcus sp.; strain GC 3059) | MIC Enterococcus faecalis (GC 4553) (Enterococcus sp.) | MIC Enterococcus faecalis (GC 4554) (Enterococcus sp.) | MIC Enterococcus avium (GC 4558) (Enterococcus sp.) | MIC Enterococcus faecalis (GC 6189) (Enterococcus sp.)
1 µg/mL: MIC Staphylococcus aureus (GC 3051) (Staphylococcus sp.; strain GC 3051) | MIC Staphylococcus aureus (GC 4541) (Staphylococcus sp.; strain GC 4541) | MIC Staphylococcus aureus (GC 4542) (Staphylococcus sp.; strain GC 4542) | MIC Coagulase Negative Staphylococcus (GC 4548) (Staphylococcus sp.; strain GC 4548) | MIC Coagulase Negative Staphylococcus (GC 4549) (Staphylococcus sp.; strain GC 4549) | MIC Coagulase Negative Staphylococcus (GC 6257) (Staphylococcus sp.; strain GC 6257) | MIC Escherichia coli (GC 4560) (Escherichia coli; strain GC 4560, 18 hours at 35° C.)
64 µg/mL: MIC Escherichia coli (ATCC 25922) (Escherichia coli; strain ATCC 25922, 18 hours at 35° C.) | MIC Escherichia coli (GC 4559) (Escherichia coli; strain GC 4559, 18 hours at 35° C.)
0.12 µg/mL: MIC Streptococcus pneumoniae (ATCC 6301) (Streptococcus sp.; Streptococcus pneumoniae (ATCC 6301)) | MIC Streptococcus pneumoniae (ATCC 6301) (Streptococcus sp.; strain ATCC 6301)
0.25 µg/mL: MIC Streptococcus agalactiae (GC 4564) (Streptococcus sp.; Streptococcus agalactiae (GC 4564)) | MIC Streptococcus pyogenes (GC 4563) (Streptococcus sp.; Streptococcus pyogenes (GC 4563)) | MIC Streptococcus pyogenes (GC 4563) (Streptococcus sp.; strain GC 4563) | MIC Streptococcus agalactiae (GC 4564) (Streptococcus sp.; strain GC 4564)
8 µg/mL: MIC Enterococcus faecalis (GC 4552) (Enterococcus sp.; inoculum 5×10^5 CFU/mL) | MIC Enterococcus faecium (GC 4556) (Enterococcus sp.; inoculum 5×10^5 CFU/mL) | MIC Enterococcus faecalis (GC 4552) (Enterococcus sp.) | MIC Enterococcus faecium (GC 4556) (Enterococcus sp.)
<0.06 µg/mL: MIC Streptococcus pneumoniae (GC 1894) (Streptococcus sp.; Streptococcus pneumoniae (GC 1894)) | MIC Streptococcus pneumoniae (GC 4565) (Streptococcus sp.; Streptococcus pneumoniae (GC 4565)) | MIC Streptococcus pneumoniae (GC 1894) (Streptococcus sp.; strain GC 1894) | MIC Streptococcus pneumoniae (GC 4565) (Streptococcus sp.; strain GC 4565)
2 µg/mL: MIC Enterococcus faecium (GC 4557) (Enterococcus sp.; inoculum 5×10^5 CFU/mL) | MIC Enterococcus faecium (GC 4557) (Enterococcus sp.) | MIC Staphylococcus aureus (GC 1131) (Staphylococcus sp.; inoculum 5×10^5 CFU/mL) | MIC Staphylococcus aureus (ATCC 29213) (Staphylococcus sp.; strain ATCC 29213) | MIC Staphylococcus aureus (GC 1131) (Staphylococcus sp.) | MIC Staphylococcus aureus (GC 3053) (Staphylococcus sp.; strain GC 3053) | MIC Staphylococcus aureus-SMITH (GC 4543) (Staphylococcus sp.; strain GC 4543) | MIC Staphylococcus aureus (GC 4544) (Staphylococcus sp.; strain GC 4544) | MIC Staphylococcus aureus (GC 4545) (Staphylococcus sp.; strain GC 4545) | MIC Coagulase Negative Staphylococcus (GC 4547) (Staphylococcus sp.; strain GC 4547) | MIC Coagulase Negative Staphylococcus (GC 4551) (Staphylococcus sp.; strain GC 4551) | MIC Staphylococcus aureus-SMITH (GC 4543) (Staphylococcus sp.; strain SMITH GC 4543)
